Patent publication US20220064214A1, “NOVEL PEPTIDES AND USES THEREOF” (CENNA BIOSCIENCES INC., priority 2019, published 2022)
Values joined by “and” are separate entries in the source; they are usually repeats but may differ in a detail not shown here. Equal entries are not always repeated. “Also recorded” adds a separate entry of the source. Where two headings read alike, the source gives them in different places. Marks after values point to notes of the source that are not given here. Square brackets hold non-standard residues; d marks the D form. Peptide text beside a SMILES is read from it.

How the values were obtained:
[1] = Pharmacokinetics study in rats, plasma; assay type: in vivo; details: rat; for plasma concentration: individual rats
Protocol: (§1) An in-vivo study was carried out in rats to determine the pharmacokinetics (PK) of peptides P8, 8M1D and 8M2D in plasma and CSF. Each peptide was assessed through two dosage routes, intravenous (IV) and subcutaneous (SC). Three rats were assigned to each dose group with each peptide. Total of twelve rats per peptide were used.
Blood was collected through jugular vein cannulas, and the samples were collected into tubes with K2EDTA. After centrifuging at a temperature of 2 to 8° C. at 4,000×g for 5 minutes, the resulting plasma was split into equal aliquots, frozen, and stored at −60 to −80° C. One aliquot was for PK analysis and the other was for Aβ analysis (see Example 4).

[2] = Pharmacokinetics study in rats, CSF; assay type: in vivo; design: CSF concentration, Mean IV / CSF concentration, Mean SC: unit not given here; details: rat; for CSF concentration, Mean IV: 10 mg/kg IV; for CSF concentration, Mean SC: 10 mg/kg SC
Protocol: as §1
CSF collection was performed by first anesthetizing animals at specified time points (see Table 5) with a mixture of 80 mg/kg ketamine and 8 mg/kg xylazine. The depth of anesthesia was monitored by toe pinches. CSF was collected via the cisterna magna (˜0.05 mL), and it was split into equal aliquots, frozen, and stored at −60 to −80° C.

[3] = PK analysis of 8M2D in transgenic mice (APPSWE), plasma; details: mouse, in vivo, sc, 10 mg/kg; for AUC(0-t): read-out: AUClast; for CL/F: read-out: Cl/F; for Cmax: read-out: Cmax; for Tmax: read-out: Tmax; for Vd/F: read-out: Vz/F; for half-life: read-out: t1/2 (converted)
Source text: Pharmacokinetics (PK) of 8M2D was further analyzed with various doses at days 1 and 13 in transgenic mice (APPSWE (B6; SJL 2576 Kha; Taconic)). See Hsiao et al., Correlative memory deficits, Aβ elevation, and amyloid plaques in transgenic mice. Science 274:99-102 (1996); and Haugabook et al., Reduction of Abeta accumulation in the Tg2576 animal model of Alzheimer's disease after oral administration of the phosphatidyl-inositol kinase inhibitor wortmannin. Faseb J 15:16-18 (2001).

time after dosing at which detectable in plasma ([1]; 10 mg/kg IV and SC): ≥ 6 h
exposure in plasma compared with P8 (in words) ([1]; 10 mg/kg IV and SC, at Cmax and most subsequent time points): better exposures than P8
plasma concentration ([1]; 10 mg/kg IV, 0 hr (pre-dose)): BQL
plasma concentration ([1]; 10 mg/kg IV, 0.167 hr, 10 mg/kg, in ng/mL (unit assumed)): 20,900 and 21,000 and 23,400
plasma concentration ([1]; 10 mg/kg IV, 0.5 hr, 10 mg/kg, in ng/mL (unit assumed)): 5,620 and 5,680 and 5,940
plasma concentration ([1]; 10 mg/kg IV, 1 hr, 10 mg/kg, in ng/mL (unit assumed)): 1,450 and 1,040 and 1,190
plasma concentration ([1]; 10 mg/kg IV, 2 hr, 10 mg/kg, in ng/mL (unit assumed)): 417 and 114 and 136
plasma concentration ([1]; 10 mg/kg IV, 4 hr, 10 mg/kg): 10.2 and 7.54 ^b and 8.29 ^b
plasma concentration ([1]; 10 mg/kg IV, 6 hr, 10 mg/kg): 2.09 ^b and 1.81 ^b and BQL
plasma concentration ([1]; 10 mg/kg IV, 8 hr): BQL
plasma concentration ([1]; 10 mg/kg IV, 12 hr): BQL
plasma concentration ([1]; 10 mg/kg IV, 24 hr): BQL
plasma concentration ([1]; 10 mg/kg SC, 0 hr (pre-dose)): BQL
plasma concentration ([1]; 10 mg/kg SC, 0.167 hr, 10 mg/kg, in ng/mL (unit assumed)): 16,200 and 13,500 and 13,800 ^a
plasma concentration ([1]; 10 mg/kg SC, 0.5 hr, 10 mg/kg, in ng/mL (unit assumed)): 9,030 and 9,010 and 7,190
plasma concentration ([1]; 10 mg/kg SC, 1 hr, 10 mg/kg, in ng/mL (unit assumed)): 3,250 and 4,160 and 3,110
plasma concentration ([1]; 10 mg/kg SC, 2 hr, 10 mg/kg, in ng/mL (unit assumed)): 609 and 987 and 1,040
plasma concentration ([1]; 10 mg/kg SC, 4 hr, 10 mg/kg, in ng/mL (unit assumed)): 59.2 and 82.8 and 125
plasma concentration ([1]; 10 mg/kg SC, 6 hr, 10 mg/kg): 3.77 ^b and 9.84 ^b and 21.6
plasma concentration ([1]; 10 mg/kg SC, 8 hr, 10 mg/kg): 1.61 ^b and 4.37 ^b and 5.19 ^b
plasma concentration ([1]; 10 mg/kg SC, 12 hr): BQL
plasma concentration ([1]; 10 mg/kg SC, 24 hr): BQL
CSF concentration, Mean IV ([2]; 0 hr): 0
CSF concentration, Mean IV ([2]; 0.5 hr): 104
CSF concentration, Mean IV ([2]; 1 hr): 55.6
CSF concentration, Mean IV ([2]; 2 hr): 68
CSF concentration, Mean IV ([2]; 4 hr): 11.5
CSF concentration, Mean IV ([2]; 8 hr): 1.75
CSF concentration, Mean IV ([2]; 12 hr): 0.378
CSF concentration, Mean IV ([2]; 24 hr): 1.2
CSF concentration, Mean SC ([2]; 0 hr): 0
CSF concentration, Mean SC ([2]; 0.5 hr): 59
CSF concentration, Mean SC ([2]; 1 hr): 53.4
CSF concentration, Mean SC ([2]; 2 hr): 172
CSF concentration, Mean SC ([2]; 4 hr): 13.3
CSF concentration, Mean SC ([2]; 8 hr): 15.3
CSF concentration, Mean SC ([2]; 12 hr): 0.113
CSF concentration, Mean SC ([2]; 24 hr): 0
AUC(0-t) ([3]; Day 1, 10 mg/kg): 12800 ng·h/mL
CL/F ([3]; Day 1, 10 mg/kg): 13 mL/min/kg
Cmax ([3]; Day 1, 10 mg/kg): 14400 ng/mL
Tmax ([3]; Day 1, 10 mg/kg): 0.17 h
Vd/F ([3]; Day 1, 10 mg/kg): 8.84 L/kg
half-life ([3]; Day 1, 10 mg/kg): 7.9 h
AUC(0-t) ([3]; Day 13, 10 mg/kg): 11600 ng·h/mL
CL/F ([3]; Day 13, 10 mg/kg): 14.1 mL/min/kg
Cmax ([3]; Day 13, 10 mg/kg): 12400 ng/mL
Tmax ([3]; Day 13, 10 mg/kg): 0.17 h
Vd/F ([3]; Day 13, 10 mg/kg): 10.2 L/kg
half-life ([3]; Day 13, 10 mg/kg): 8.4 h
SMILES: CC(=O)N[C@H](CC(=O)O)C(=O)N[C@@H](CCC(=O)O)C(=O)N[C@@H](CCC(=O)O)C(=O)N[C@@H](CCC(=O)O)C(=O)N[C@@H](CC(=O)O)C(=O)N[C@@H](CCC(=O)O)C(=O)N[C@@H](CCC(=O)O)C(=O)N[C@@H](CC(C)C)C(N)=O [8M2D, Ac-dEEEDEEL-NH2] (Ac-[dD]EEEDEEL-NH2)
exposure in CSF compared with P8 (in words) ([2]; 10 mg/kg IV and SC, at Cmax and most subsequent time points, 10 mg/kg): better exposures than P8; also recorded: higher exposure than P8
